Measurements from PubChem BioAssay AID256 (DTP/NCI, 2004).
“And” between values parts separate entries of the source, which are not always exact repeats. Equal values may be shown once. Toxic doses and inconclusive results are not listed.

Test system: CD2F1 mice, L1210 leukemia ip, survival T/C
Experiment: NCI In Vivo Anticancer Drug Screen. Data for tumor model L1210 Leukemia (intraperitoneal) in CD2F1 (CDF1) mice
Conditions: endpoint: mean survival time, higher = longer survival
How it was run: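 Ratio T/C, where T is the treated-group value and C the vehicle-dosed control value, from mice implanted with a transplantable tumor.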

[1] = dose: 100.0 mg/kg/injection, schedule: Q04DX002 (ip), vehicle: saline with Tween-80
[2] = dose: 200.0 mg/kg/injection, schedule: Q04DX002 (ip), vehicle: saline with Tween-80
[3] = dose: 400.0 mg/kg/injection, schedule: Q04DX002 (ip), vehicle: saline with Tween-80
[4] = dose: 100.0 mg/kg/injection, schedule: Q01DX009 (ip), vehicle: saline with Tween-80
[5] = dose: 200.0 mg/kg/injection, schedule: Q01DX009 (ip), vehicle: saline with Tween-80
[6] = dose: 100.0 mg/kg/injection, schedule: Q04DX003 (ip), vehicle: saline with Tween-80
[7] = dose: 200.0 mg/kg/injection, schedule: Q04DX003 (ip), vehicle: saline with Tween-80
[8] = dose: 400.0 mg/kg/injection, schedule: Q04DX003 (ip), vehicle: saline with Tween-80
[9] = dose: 400.0 mg/kg/injection, schedule: Q01DX009 (ip), vehicle: saline with Tween-80

SMILES: CC(C)(O)C#CC(C)(C)OC(O)C(Cl)(Cl)Cl (stereo not given)
- T/C [1]: 96 % of control
- T/C [2]: 101 % of control
- T/C [3]: 93 % of control

SMILES: c1ccc([Si]2(c3ccccc3)c3ccccc3-c3ccccc32)cc1
- T/C [4]: 94 % of control
- T/C [5]: 99 % of control

SMILES: O=C(Nc1ccccc1C(F)(F)F)OCCOc1ccc(Br)cc1
- T/C (dose: 100.0 mg/kg/injection, schedule: Q01DX009 (ip), vehicle: Klucel (hydroxypropylcellulose) (HPC)): 100 % of control
- T/C (dose: 200.0 mg/kg/injection, schedule: Q01DX009 (ip), vehicle: Klucel (hydroxypropylcellulose) (HPC)): 103 % of control
- T/C (dose: 400.0 mg/kg/injection, schedule: Q01DX009 (ip), vehicle: Klucel (hydroxypropylcellulose) (HPC)): 87 % of control

SMILES: O=[N+]([O-])c1ccc(/C=C/C=C/c2ccccc2)cc1
- T/C [6]: 101 % of control
- T/C [7]: 98 % of control
- T/C [8]: 95 % of control

SMILES: O=C(c1ccccc1)C1CC1C(=O)c1ccccc1 (stereo not given)
- T/C [1]: 100 % of control
- T/C [2]: 112 % of control
- T/C [3]: 100 % of control

SMILES: COc1cccc2c1C(=O)c1c(O)c3c(c(O)c1C2=O)C[C@@](O)(C(=O)CO)C[C@@H]3OC1CC(N)C(OC)C(C)O1 (stereo not given in full)
- T/C (dose: 0.54 mg/kg/injection, schedule: Q01DX009 (ip), vehicle: saline): 159 % of control
- T/C (dose: 0.65 mg/kg/injection, schedule: Q01DX009 (ip), vehicle: saline): 207 % of control
- T/C (dose: 0.9 mg/kg/injection, schedule: Q01DX009 (ip), vehicle: saline): 229 % of control
- T/C (dose: 1.08 mg/kg/injection, schedule: Q01DX009 (ip), vehicle: saline): 319 % of control
- T/C (dose: 1.3 mg/kg/injection, schedule: Q01DX001 (ip), vehicle: saline): 161 % of control
- T/C (dose: 1.8 mg/kg/injection, schedule: Q01DX009 (ip), vehicle: saline): 250 % of control
- T/C (dose: 2.16 mg/kg/injection, schedule: Q01DX001 (ip), vehicle: saline): 161 % of control
- T/C (dose: 3.0 mg/kg/injection, schedule: Q01DX009 (ip), vehicle: saline): 93 % of control
- T/C (dose: 3.6 mg/kg/injection, schedule: Q01DX001 (ip), vehicle: saline): 168 % of control and 170 % of control
- T/C (dose: 6.0 mg/kg/injection, schedule: Q01DX001 (ip), vehicle: saline): 189 % of control and 353 % of control
- T/C (dose: 10.0 mg/kg/injection, schedule: Q01DX001 (ip), vehicle: saline): 187 % of control and 260 % of control

SMILES: O=NN(Cc1cccnc1)Cc1cccnc1
- T/C (dose: 75.0 mg/kg/injection, schedule: Q01DX001 (ip), vehicle: water): 102 % of control
- T/C (dose: 150.0 mg/kg/injection, schedule: Q01DX001 (ip), vehicle: water): 102 % of control

SMILES: CC12CCC(/C(=C/NNc3ccc([N+](=O)[O-])cc3[N+](=O)[O-])C1=O)C2(C)C (stereo not given)
- T/C [6]: 93 % of control
- T/C [7]: 90 % of control
- T/C [8]: 96 % of control

SMILES: Cc1cc(C)c(N)c(Br)c1C
- T/C [4]: 102 % of control
- T/C [6]: 103 % of control
- T/C [5]: 97 % of control
- T/C [7]: 100 % of control
- T/C [9]: 104 % of control
- T/C [8]: 101 % of control

SMILES: CCOC(=O)CCCSc1n[nH]c(=O)[nH]c1=O
- T/C (dose: 12.5 mg/kg/injection, schedule: Q01DX005 (ip), vehicle: distilled water + Tween-80): 100 % of control
- T/C (dose: 25.0 mg/kg/injection, schedule: Q01DX005 (ip), vehicle: distilled water + Tween-80): 102 % of control
- T/C (dose: 50.0 mg/kg/injection, schedule: Q01DX005 (ip), vehicle: distilled water + Tween-80): 96 % of control
- T/C (dose: 100.0 mg/kg/injection, schedule: Q01DX005 (ip), vehicle: distilled water + Tween-80): 91 % of control
- T/C (dose: 200.0 mg/kg/injection, schedule: Q01DX005 (ip), vehicle: distilled water + Tween-80): 92 % of control

SMILES: NC(=S)N/N=C/c1ccccc1O
- T/C [4]: 102 % of control
- T/C [5]: 91 % of control
- T/C [9]: 88 % of control

SMILES: COCc1nnc(N)c(C(N)=O)n1
- T/C (dose: 100.0 mg/kg/injection, schedule: Q01DX001 (ip), vehicle: carboxymethylcellulose (CMC)): 100 % of control
- T/C (dose: 200.0 mg/kg/injection, schedule: Q01DX001 (ip), vehicle: carboxymethylcellulose (CMC)): 100 % of control
- T/C (dose: 400.0 mg/kg/injection, schedule: Q01DX001 (ip), vehicle: carboxymethylcellulose (CMC)): 89 % of control

SMILES: c1ccc(C2=Nc3ccccc3C(c3ccccc3)=Nc3ccccc32)cc1
- T/C [6]: 109 % of control
- T/C [7]: 91 % of control
- T/C [8]: 101 % of control
